For eight compounds, inhibition and IC50 results are on record in ChEMBL document CHEMBL1144136, “Anti-HIV-1 protease triterpenoid saponins from the seeds of Aesculus chinensis” (J Nat Prod, 1999).

The target of experiment [1] is Protease (Human immunodeficiency virus 1) (UniProt Q9YQ12). Briefly: Inhibition of HIV1 protease at 100 uM.
The next experiment addresses Protease (Human immunodeficiency virus 1, UniProt Q9YQ12). Briefly: Inhibition of HIV1 protease.

Protease (Human immunodeficiency virus 1), sequence (Q9YQ12 as listed by the source): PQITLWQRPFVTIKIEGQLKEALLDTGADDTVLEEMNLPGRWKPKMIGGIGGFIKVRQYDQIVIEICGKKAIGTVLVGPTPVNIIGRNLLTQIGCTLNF
Protease, sequence (Q9YQ12 whole entry): as the sequence (Q9YQ12 as listed by the source) above

The compound `C/C=C(/C)C(=O)O[C@H]1[C@H](O)[C@]2(COC(C)=O)[C@H](O)C[C@]3(C)C(=CC[C@@H]4[C@@]5(C)CC[C@H](O[C@@H]6O[C@H](C(=O)O)[C@@H](O[C@@H]7O[C@H](CO)[C@@H](O)[C@H](O)[C@H]7O)[C@H](O)[C@H]6O[C@@H]6O[C@H](CO)[C@@H](O)[C@H](O)[C@H]6O)[C@](C)(CO)[C@@H]5CC[C@]43C)[C@@H]2CC1(C)C` showed an inhibition in experiment [1] of 14.7%.

In turn, `C/C=C(\C)C(=O)O[C@H]1[C@H](OC(C)=O)[C@]2(CO)[C@H](O)C[C@]3(C)C(=CC[C@@H]4[C@@]5(C)CC[C@H](O[C@@H]6O[C@H](C(=O)O)[C@@H](O[C@@H]7O[C@H](CO)[C@@H](O)[C@H](O)[C@H]7O)[C@H](O)[C@H]6O[C@@H]6O[C@H](CO)[C@@H](O)[C@H](O)[C@H]6O)[C@](C)(CO)[C@@H]5CC[C@]43C)[C@@H]2CC1(C)C` [ESCIN IA] yielded a concentration for half-maximal inhibition (IC50) at Protease of 35 µM.

In turn, `C/C=C(/C)C(=O)OC[C@@]12[C@H](O)C[C@]3(C)C(=CC[C@@H]4[C@@]5(C)CC[C@H](O[C@@H]6O[C@H](C(=O)O)[C@@H](O[C@@H]7O[C@H](CO)[C@@H](O)[C@H](O)[C@H]7O)[C@H](O)[C@H]6O[C@@H]6O[C@H](CO)[C@@H](O)[C@H](O)[C@H]6O)[C@](C)(CO)[C@@H]5CC[C@]43C)[C@@H]1CC(C)(C)[C@@H](O)[C@@H]2O` had an inhibition in experiment [1] of 12.5%.

In experiment [1], `C/C=C(/C)C(=O)O[C@H]1[C@H](O)C(C)(C)C[C@H]2C3=CC[C@@H]4[C@@]5(C)CC[C@H](O[C@@H]6O[C@H](C(=O)O)[C@@H](O[C@@H]7O[C@H](CO)[C@@H](O)[C@H](O)[C@H]7O)[C@H](O)[C@H]6O[C@@H]6O[C@H](CO)[C@@H](O)[C@H](O)[C@H]6O)[C@](C)(CO)[C@@H]5CC[C@@]4(C)[C@]3(C)C[C@@H](O)[C@]21COC(C)=O` came in with an inhibition of 34%.

In experiment [1], `C/C=C(\C)C(=O)O[C@H]1[C@H](O)C(C)(C)C[C@H]2C3=CC[C@@H]4[C@@]5(C)CC[C@H](O[C@@H]6O[C@H](C(=O)O)[C@@H](O[C@@H]7O[C@H](CO)[C@@H](O)[C@H](O)[C@H]7O)[C@H](O)[C@H]6O[C@@H]6O[C@H](CO)[C@@H](O)[C@H](O)[C@H]6O)[C@](C)(CO)[C@@H]5CC[C@@]4(C)[C@]3(C)C[C@@H](O)[C@]21COC(C)=O` registered an inhibition of 35.2%.

Take `C/C=C(\C)C(=O)OC[C@@]12[C@H](O)C[C@]3(C)C(=CC[C@@H]4[C@@]5(C)CC[C@H](O[C@@H]6O[C@H](C(=O)O)[C@@H](O[C@@H]7O[C@H](CO)[C@@H](O)[C@H](O)[C@H]7O)[C@H](O)[C@H]6O[C@@H]6O[C@H](CO)[C@@H](O)[C@H](O)[C@H]6O)[C@](C)(CO)[C@@H]5CC[C@]43C)[C@@H]1CC(C)(C)[C@@H](O)[C@@H]2O`: in experiment [1], the inhibition was 15.9%.

For the compound `C/C=C(\C)C(=O)O[C@H]1[C@H](O)[C@]2(COC(C)=O)[C@H](O)C[C@]3(C)C(=CC[C@@H]4[C@@]5(C)CC[C@H](O[C@@H]6O[C@H](C(=O)O)[C@@H](O[C@@H]7O[C@H](CO)[C@@H](O)[C@H](O)[C@H]7O)[C@H](O)[C@H]6O[C@@H]6O[C@H](CO)[C@@H](O)[C@H](O)[C@H]6O)[C@](C)(CO)[C@@H]5CC[C@]43C)[C@@H]2CC1(C)C`, in experiment [1], the inhibition is 39%.

`C/C=C(/C)C(=O)O[C@H]1[C@H](OC(C)=O)[C@]2(CO)[C@H](O)C[C@]3(C)C(=CC[C@@H]4[C@@]5(C)CC[C@H](O[C@@H]6O[C@H](C(=O)O)[C@@H](O[C@@H]7O[C@H](CO)[C@@H](O)[C@H](O)[C@H]7O)[C@H](O)[C@H]6O[C@@H]6O[C@H](CO)[C@@H](O)[C@H](O)[C@H]6O)[C@](C)(CO)[C@@H]5CC[C@]43C)[C@@H]2CC1(C)C` [ESCIN IB]: the half-maximal inhibitory concentration (IC50) against Protease was 50 µM.
